The values below come from US20150111262A1, “METHODS AND MATERIALS FOR PRODUCING FIVE CARBON BUILDING BLOCKS FROM PROLINE” (INVISTA North America S.á r.l., priority 2013, published 2015).

The subject of assay [1] is diamine transaminase. The settings on record: Kim, 1964; cited from earlier work.
Assay [2] relates to carboxylate reductase of SEQ ID NO: 2. Briefly: carboxylate reductase activity, 5-hydroxypentanoate to 5-hydroxypentanal. Format: biochemical, Mycobacterium smegmatis. As to conditions: SEQ ID NO 2, enhanced by sfp gene product; 1 mM ATP, 1 mM NADPH, pH 7.5, room temperature, 20 min; FIG. 12. The procedure:
(§1) A sequence encoding a His-tag was added to the genes from Mycobacterium marinum, Mycobacterium smegmatis, Segniliparus rugosus, Mycobacterium massiliense, and Segniliparus rotundus that encode the carboxylate reductases of SEQ ID NOs: 1, 2, 3, 5 and 6, respectively (see FIG. 7) such that N-terminal HIS tagged carboxylate reductases could be produced. Each of the modified genes was cloned into a pET Duet expression vector alongside a sfp gene encoding a His-tagged phosphopantetheine transferase from Bacillus subtilis, both under control of the T7 promoter.
(§2) Each expression vector was transformed into a BL21[DE3] E. coli host and the resulting recombinant E. coli strains were cultivated at 37° C. in a 250 mL shake flask culture containing 50 mL LB media and antibiotic selection pressure, with shaking at 230 rpm. Each culture was induced overnight at 37° C. using an auto-induction media.
(§3) The pellet from each induced shake flask culture was harvested via centrifugation. Each pellet was resuspended and lysed via sonication. […]
(§4) Enzyme activity (i.e., 5-hydroxypentanoate to 5-hydroxypentanal) assays were performed in triplicate in a buffer composed of a final concentration of 50 mM HEPES buffer (pH=7.5), 2 mM 5-hydroxypentanal, 10 mM MgCl2, 1 mM ATP, and 1 mM NADPH. […] The consumption of NADPH was monitored by absorbance at 340 nm.

In assay [3] the test system is carboxylate reductase of SEQ ID NO: 6. The assay is described as above. Format: biochemical, Segniliparus rotundus. The settings on record: SEQ ID NO 6, enhanced by sfp gene product; 1 mM ATP, 1 mM NADPH, pH 7.5, room temperature, 20 min; FIG. 12. The method, then:
as §1, §2, §3, §4

For assay [4], the system named is carboxylate reductase of SEQ ID NO: 5. Described as above. The class given is biochemical, Mycobacterium massiliense. As to conditions: SEQ ID NO 5, enhanced by sfp gene product; 1 mM ATP, 1 mM NADPH, pH 7.5, room temperature, 20 min; FIG. 12. The method, then:
as §1, §2, §3, §4

Assay [5] relates to carboxylate reductase of SEQ ID NO: 3. The description is as above. The class given is biochemical, Segniliparus rugosus. The settings on record: SEQ ID NO 3, enhanced by sfp gene product; 1 mM ATP, 1 mM NADPH, pH 7.5, room temperature, 20 min; FIG. 12. The procedure:
as §1, §2, §3, §4

Assay [6] has as its target T1, carboxylate reductase of SEQ ID NO: 1 (Mycobacterium marinum, UniProt B2HN69).
T1 construct: His-tag (N); made in house; host or cells: E. coli BL21[DE3], pET Duet
Described as above. The class given is biochemical. As to conditions: SEQ ID NO 1, enhanced by sfp gene product; 1 mM ATP, 1 mM NADPH, pH 7.5, room temperature, 20 min; FIG. 12. The procedure: as §1, §2, §3, §4

Assay [7] relates to reversible 5-aminovalerate transaminase. The settings on record: Barker et al., J. Biol. Chem., 1987; cited from earlier work.
For assay [8], the system named is reversible ω-transaminase (SEQ ID NO: 7). As to conditions: Kaulmann et al., 2007; cited from earlier work.
Assay [9] deals with reversible 4-aminobubyrate:2-oxoglutarate transaminase. As to conditions: Yonaha et al., Eur. J. Biochem., 1985; cited from earlier work.
The subject of assay [10] is carboxylate reductase of SEQ ID NO 6. Briefly: carboxylate reductase activity, glutarate semialdehyde to pentanedial. As to conditions: SEQ ID NO 6, enhanced by sfp gene product; 2 mM glutarate semialdehyde, 1 mM ATP, 1 mM NADPH, pH 7.5, room temperature, 20 min; FIG. 15. The class given is biochemical, Segniliparus rotundus. The procedure: The N-terminal His-tagged carboxylate reductase of SEQ ID NO 6 (see Example 2 and FIG. 7) was assayed using glutarate semialdehyde as substrate. The enzyme activity assay was performed in triplicate in a buffer composed of a final concentration of 50 mM HEPES buffer (pH=7.5), 2 mM glutarate semialdehyde, 10 mM MgCl2, 1 mM ATP and 1 mM NADPH. The enzyme activity assay reaction was initiated by adding purified carboxylate reductase and phosphopantetheine transferase or the empty vector control to the assay buffer containing the glutarate semialdehyde and then incubated at room temperature for 20 min. The consumption of NADPH was monitored by absorbance at 340 nm.

In assay [11] the test system is ω-transaminase of SEQ ID NO: 9. Briefly: ω-transaminase activity, glutarate semialdehyde to 5-aminopentanoate (reverse direction). The class given is biochemical, Pseudomonas syringae. The settings on record: cell free extract; 10 mM glutarate semialdehyde, 10 mM L-alanine, pH 7.5, 25° C., 4 h; RP-HPLC; FIG. 9. The method, then:
A sequence encoding an N-terminal His-tag was added to the genes from Chromobacterium violaceum and Pseudomonas syringae encoding the ω-transaminases of SEQ ID NOs: 7 and 9, respectively (see FIG. 7) such that N-terminal HIS tagged ω-transaminases could be produced. Each of the resulting modified genes was cloned into a pET21a expression vector under control of the T7 promoter and each expression vector was transformed into a BL21[DE3] E. coli host. The resulting recombinant E. coli strains were cultivated at 37° C. in a 250 mL shake flask culture containing 50 mL LB media and antibiotic selection pressure, with shaking at 230 rpm. Each culture was induced overnight at 16° C. using 1 mM IPTG.
The pellet from each induced shake flask culture was harvested via centrifugation. Each pellet was resuspended and lysed via sonication. The cell debris was separated from the supernatant via centrifugation and the cell free extract was used immediately in enzyme activity assays.
Enzyme activity in the reverse direction (i.e., glutarate semialdehyde to 5-aminopentanoate) were performed in a buffer composed of a final concentration of 50 mM HEPES buffer (pH=7.5), 10 mM glutarate semialdehyde, 10 mM L-alanine and 100 μM pyridoxyl 5′ phosphate. […] The formation of pyruvate was quantified via RP-HPLC.

T1 sequence (B2HN69 whole entry): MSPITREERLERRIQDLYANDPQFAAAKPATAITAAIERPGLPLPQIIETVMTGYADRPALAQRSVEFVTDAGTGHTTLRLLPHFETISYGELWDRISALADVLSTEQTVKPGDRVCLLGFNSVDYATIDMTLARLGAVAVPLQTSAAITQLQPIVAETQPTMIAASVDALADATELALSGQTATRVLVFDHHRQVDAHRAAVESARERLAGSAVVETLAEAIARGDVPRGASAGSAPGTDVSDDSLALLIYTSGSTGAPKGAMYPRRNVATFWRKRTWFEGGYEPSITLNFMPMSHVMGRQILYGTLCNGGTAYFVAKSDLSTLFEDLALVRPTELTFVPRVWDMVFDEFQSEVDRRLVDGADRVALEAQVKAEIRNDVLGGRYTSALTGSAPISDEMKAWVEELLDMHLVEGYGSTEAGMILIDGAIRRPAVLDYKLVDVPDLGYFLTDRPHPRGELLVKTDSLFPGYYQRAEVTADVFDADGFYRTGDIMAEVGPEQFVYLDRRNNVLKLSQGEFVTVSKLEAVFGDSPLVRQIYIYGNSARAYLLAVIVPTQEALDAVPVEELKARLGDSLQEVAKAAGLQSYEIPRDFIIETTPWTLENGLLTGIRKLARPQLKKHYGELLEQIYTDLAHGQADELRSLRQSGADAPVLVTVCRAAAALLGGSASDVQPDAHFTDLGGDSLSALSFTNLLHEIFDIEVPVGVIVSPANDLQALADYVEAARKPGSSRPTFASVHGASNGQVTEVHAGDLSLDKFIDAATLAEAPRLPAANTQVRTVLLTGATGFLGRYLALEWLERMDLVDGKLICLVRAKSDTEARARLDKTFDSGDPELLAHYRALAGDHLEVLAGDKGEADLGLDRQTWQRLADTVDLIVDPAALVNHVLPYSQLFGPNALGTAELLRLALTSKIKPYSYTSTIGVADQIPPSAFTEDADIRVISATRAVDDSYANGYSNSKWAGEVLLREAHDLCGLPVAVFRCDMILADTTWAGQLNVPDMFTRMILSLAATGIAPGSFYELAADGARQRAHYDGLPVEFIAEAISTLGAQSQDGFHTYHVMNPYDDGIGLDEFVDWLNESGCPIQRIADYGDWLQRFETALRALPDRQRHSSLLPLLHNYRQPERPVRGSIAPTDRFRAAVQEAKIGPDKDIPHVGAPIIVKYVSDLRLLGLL

Turning to `NCCCCCCCN` [1,7 diaminoheptane], in assay [1], the diamine transaminase activity entry is recorded as “demonstrated activity”.
Take `O=C(O)CCCCO` [5-hydroxypentanoate]: the “acceptance as substrate (consumption of NADPH, absorbance at 340 nm) vs empty vector control” value in assay [2], in assay [3], in assay [4], in [5] and in assay [6] was “accepted 5-hydroxypentanoate as substrate” in each case.
`NCCCCCC(=O)O` [6-aminohexanoate]: the “activity for the conversion to adipate semialdehyde” value in assay [7] and in [9] was “demonstrated analogous activity” throughout. Further, in assay [8], the “activity accepting as amino donor” value is “demonstrated analogous activity”.
In the case of `O=CCCCC(=O)O` [glutarate semialdehyde], the “acceptance as substrate (consumption of NADPH, absorbance at 340 nm) vs empty vector control” value in assay [10] is “accepted glutarate semialdehyde as substrate”. Moreover, the “acceptance as substrate (conversion of L-alanine to pyruvate) vs empty vector control” value in assay [11] was “accepted glutarate semialdehyde as substrate”.
